According to PMC8007111, “Novel Potent Muscarinic Receptor Antagonists: Investigation on the Nature of Lipophilic Substituents in the 5- and/or 6-Positions of the 1,4-Dioxane Nucleus” (Journal of Medicinal Chemistry, 2020):

What was measured:
hM1 mAChR = biological target: T1, hM1 mAChR (Homo sapiens, UniProt P11229); assay: [3H]NMS inhibition radioligand binding, hM1 in CHO-K1 cell membranes
T1 construct: expressed in transfected cells; host or cells: CHO-K1 (membrane preparation)
T1 sequence (P11229 1-460): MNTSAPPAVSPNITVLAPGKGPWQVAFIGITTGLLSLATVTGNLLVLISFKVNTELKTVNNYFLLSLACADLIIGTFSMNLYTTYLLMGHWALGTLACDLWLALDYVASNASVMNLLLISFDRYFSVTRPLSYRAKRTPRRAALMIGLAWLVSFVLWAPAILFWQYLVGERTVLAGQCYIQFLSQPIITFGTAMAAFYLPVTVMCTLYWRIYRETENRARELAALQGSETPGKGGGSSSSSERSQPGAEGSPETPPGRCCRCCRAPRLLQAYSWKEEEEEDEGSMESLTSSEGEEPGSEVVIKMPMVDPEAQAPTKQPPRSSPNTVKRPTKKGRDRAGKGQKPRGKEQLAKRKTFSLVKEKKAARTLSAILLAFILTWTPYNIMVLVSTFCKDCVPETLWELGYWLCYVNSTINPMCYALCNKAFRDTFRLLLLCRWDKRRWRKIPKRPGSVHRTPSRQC
Experimental: (§1) CHO-K1 cells stably transfected with the human muscarinic receptor subtypes (hM1–5) were grown in Dulbecco’s modified Eagle’s medium (DMEM) with nutrient mixture F12 (DMEM/F12, 50/50), containing 10% fetal bovine serum, penicillin (100 U/mL), streptomycin (100 U/mL), L-glutamine (4 mM), and geneticin (G-418, 50 μg/mL) at 37 °C in a 5% CO2 humidified incubator. […] Serum (0.7 mL) was added to inactivate the trypsin, and the cells were spun down by centrifuging at 300g for 5 min. The cells were then resuspended in ice-cold 25 mM sodium phosphate buffer containing 5 mM MgCl2, pH 7.4 (binding buffer) and homogenized using a cell disrupter (Ultra-Turrax, setting 3, 30 s). The homogenate was sedimented by centrifugation (17,000g, 15 min). The supernatant was discarded, and the resulting membrane pellets were resuspended with Ultra-Turrax in the same buffer to give a final protein concentration of 1–2 mg/mL. The protein content was determined by the method of Bradford (1976) with bovine serum albumin (Sigma) as a standard and stored at −80 °C.
(§2) Inhibition radioligand binding assays were conducted as previously described[48],[49] with 0.2 nM [^3H]NMS in binding buffer in a final volume of 250 μL. Nonspecific binding was defined in the presence of 10 μM atropine. Briefly, membrane fractions (about 25–70 μg/mL of protein) were incubated with radioligand and unlabeled test compounds for 2 h at r.t. Bound and free radioactivity were separated by filtering the assay mixture through UniFilter GF/B plates using a FilterMate Cell Harvester (PerkinElmer Life and Analytical Science). The filter bound radioactivity was counted by a TopCount NXT Microplate Scintillation Counter (PerkinElmer Life and Analytical Science). Data (cpm) were normalized to percentage-specific binding and analyzed using a four-parameter logistic equation in GraphPad Prism 5.02; IC50 values were determined, and Ki values were calculated.[59]

hM2 mAChR = biological target: T2, hM2 mAChR (Homo sapiens, UniProt P08172); assay: [3H]NMS inhibition radioligand binding, hM2 in CHO-K1 cell membranes
T2 construct: expressed in transfected cells; host or cells: CHO-K1 (membrane preparation)
T2 sequence (P08172 1-466): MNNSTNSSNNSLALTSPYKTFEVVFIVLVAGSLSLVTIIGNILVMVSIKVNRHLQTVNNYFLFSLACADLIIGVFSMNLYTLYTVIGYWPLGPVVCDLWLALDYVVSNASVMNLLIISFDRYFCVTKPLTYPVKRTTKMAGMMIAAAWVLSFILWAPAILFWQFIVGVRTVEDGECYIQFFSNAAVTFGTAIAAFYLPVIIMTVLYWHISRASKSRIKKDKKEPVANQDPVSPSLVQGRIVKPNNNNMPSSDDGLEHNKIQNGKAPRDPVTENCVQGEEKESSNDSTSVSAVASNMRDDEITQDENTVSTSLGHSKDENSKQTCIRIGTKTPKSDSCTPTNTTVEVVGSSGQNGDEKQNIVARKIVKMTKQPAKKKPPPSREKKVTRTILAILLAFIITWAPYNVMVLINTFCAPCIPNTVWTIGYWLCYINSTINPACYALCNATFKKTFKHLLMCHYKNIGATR
Experimental: as §1, §2

hM3 mAChR = biological target: T3, hM3 mAChR (Homo sapiens, UniProt P20309); assay: [3H]NMS inhibition radioligand binding, hM3 in CHO-K1 cell membranes
T3 construct: expressed in transfected cells; host or cells: CHO-K1 (membrane preparation)
Experimental: as §1, §2

hM4 mAChR = biological target: T4, hM4 mAChR (Homo sapiens, UniProt P08173); assay: [3H]NMS inhibition radioligand binding, hM4 in CHO-K1 cell membranes
T4 construct: expressed in transfected cells; host or cells: CHO-K1 (membrane preparation)
T4 sequence (P08173 1-479): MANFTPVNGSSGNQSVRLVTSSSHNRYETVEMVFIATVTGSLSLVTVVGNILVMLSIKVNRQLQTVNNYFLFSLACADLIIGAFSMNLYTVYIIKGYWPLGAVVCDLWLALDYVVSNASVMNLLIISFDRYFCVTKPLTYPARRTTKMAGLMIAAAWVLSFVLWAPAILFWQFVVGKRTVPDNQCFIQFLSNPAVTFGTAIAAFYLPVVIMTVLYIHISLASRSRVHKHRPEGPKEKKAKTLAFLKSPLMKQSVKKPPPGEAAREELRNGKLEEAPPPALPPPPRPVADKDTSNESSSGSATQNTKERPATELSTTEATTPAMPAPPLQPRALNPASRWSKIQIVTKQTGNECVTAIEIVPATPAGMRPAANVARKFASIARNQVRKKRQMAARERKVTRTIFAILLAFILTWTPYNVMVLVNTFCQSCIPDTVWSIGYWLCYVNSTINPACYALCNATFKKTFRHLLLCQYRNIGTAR
Experimental: as §1, §2

hM5 mAChR = biological target: T5, hM5 mAChR (Homo sapiens, UniProt P08912); assay: [3H]NMS inhibition radioligand binding, hM5 in CHO-K1 cell membranes
T5 construct: expressed in transfected cells; host or cells: CHO-K1 (membrane preparation)
T5 sequence (P08912 1-532): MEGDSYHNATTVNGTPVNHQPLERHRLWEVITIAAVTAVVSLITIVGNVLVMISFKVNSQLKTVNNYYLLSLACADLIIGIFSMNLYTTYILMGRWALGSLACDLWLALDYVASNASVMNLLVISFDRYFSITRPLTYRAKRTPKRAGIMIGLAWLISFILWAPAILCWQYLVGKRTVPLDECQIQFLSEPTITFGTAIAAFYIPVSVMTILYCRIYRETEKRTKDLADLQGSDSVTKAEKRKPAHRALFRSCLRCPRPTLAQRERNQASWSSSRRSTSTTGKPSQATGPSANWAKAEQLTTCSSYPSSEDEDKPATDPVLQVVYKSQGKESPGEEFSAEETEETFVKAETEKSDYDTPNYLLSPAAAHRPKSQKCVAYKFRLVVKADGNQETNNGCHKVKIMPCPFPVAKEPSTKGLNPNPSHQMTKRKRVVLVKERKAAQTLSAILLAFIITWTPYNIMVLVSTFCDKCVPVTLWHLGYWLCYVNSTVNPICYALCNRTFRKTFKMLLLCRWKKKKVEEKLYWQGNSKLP
Experimental: as §1, §2

[1] = [3H]NMS, CHO-K1 cell membranes, mean ± S.E.M.

T3 sequence (P20309 whole entry): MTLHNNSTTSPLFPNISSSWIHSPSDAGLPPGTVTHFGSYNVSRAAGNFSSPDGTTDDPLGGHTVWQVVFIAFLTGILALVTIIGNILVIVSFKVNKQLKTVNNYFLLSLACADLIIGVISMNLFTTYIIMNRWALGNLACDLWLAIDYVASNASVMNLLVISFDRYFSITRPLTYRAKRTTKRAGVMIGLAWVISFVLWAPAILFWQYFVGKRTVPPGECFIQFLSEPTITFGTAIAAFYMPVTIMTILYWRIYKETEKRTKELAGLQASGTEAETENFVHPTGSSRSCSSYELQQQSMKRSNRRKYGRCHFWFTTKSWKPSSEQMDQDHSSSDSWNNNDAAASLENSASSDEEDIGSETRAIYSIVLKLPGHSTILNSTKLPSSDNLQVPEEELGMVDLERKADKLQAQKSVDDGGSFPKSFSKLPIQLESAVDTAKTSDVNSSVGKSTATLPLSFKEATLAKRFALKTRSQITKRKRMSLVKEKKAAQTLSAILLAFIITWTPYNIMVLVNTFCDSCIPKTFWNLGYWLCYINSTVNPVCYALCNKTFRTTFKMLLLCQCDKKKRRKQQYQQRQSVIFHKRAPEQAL

Row | pKi hM1 (hM1 mAChR; [1]) | pKi hM2 (hM2 mAChR; [1]) | pKi hM3 (hM3 mAChR; [1]) | pKi hM4 (hM4 mAChR; [1]) | pKi hM5 (hM5 mAChR; [1]) | ER (eudismic ratio) hM1 (hM1 mAChR; eutomer vs distomer) | ER (eudismic ratio) hM2 (hM2 mAChR; eutomer vs distomer) | ER (eudismic ratio) hM3 (hM3 mAChR; eutomer vs distomer) | ER (eudismic ratio) hM4 (hM4 mAChR; eutomer vs distomer) | ER (eudismic ratio) hM5 (hM5 mAChR; eutomer vs distomer) | Ki (hM1 mAChR; [3H]NMS, CHO-K1 cell membranes, mean ± S.E.M., read-out: pKi hM1 (converted)) | Ki (hM2 mAChR; [3H]NMS, CHO-K1 cell membranes, mean ± S.E.M., read-out: pKi hM2 (converted)) | Ki (hM3 mAChR; [3H]NMS, CHO-K1 cell membranes, mean ± S.E.M., read-out: pKi hM3 (converted)) | Ki (hM4 mAChR; [3H]NMS, CHO-K1 cell membranes, mean ± S.E.M., read-out: pKi hM4 (converted)) | Ki (hM5 mAChR; [3H]NMS, CHO-K1 cell membranes, mean ± S.E.M., read-out: pKi hM5 (converted)) | Structure (SMILES)
1 | 7.19 ± 0.07 | 6.62 ± 0.08 | 6.45 ± 0.01 | 6.40 ± 0.06 | 6.21 ± 0.01 |  |  |  |  |  |  |  |  |  |  | C[N+](C)(C)C[C@@H]1CO[C@@H](c2ccccc2)[C@@H](c2ccccc2)O1.[I-] (relative stereo) [18c, 1-((2R*,5S*,6R*)-5,6-Diphenyl-1,4-dioxan-2-yl)-N,N,N-trimethylmethanaminium Iodide]
2 | 7.68 ± 0.16 | 7.17 ± 0.11 | 6.73 ± 0.06 | 7.01 ± 0.08 | 7.16 ± 0.27 |  |  |  |  |  |  |  |  |  |  | CN(C)C[C@@H]1COC[C@](c2ccccc2)(C2CCCCC2)O1 [(2R,6R)-(+)-33b]
3 | 5.17 ± 0.09 | 6.38 ± 0.10 | 5.88 ± 0.14 | 5.42 ± 0.02 | 5.72 ± 0.15 |  |  |  |  |  |  |  |  |  |  | C[N+](C)(C)C[C@@H]1CO[C@@H](c2ccc([S+]([O-])c3ccccc3)cc2)CO1.[I-] (relative stereo) [16b, 1-((2R*,5S*)-5-(4-(Phenylsulfinyl)phenyl)-1,4-dioxan-2-yl)-N,N,N-trimethylmethanaminium Iodide]
4 | 9.10 ± 0.28 | 8.10 ± 0.10 | 9.02 ± 0.10 | 9.09 ± 0.15 | 8.83 ± 0.10 | 26 | 9 | 195 | 120 | 47 |  |  |  |  |  | CN(C)C[C@H]1COC[C@@](c2ccccc2)(C2CCCCC2)O1 [(2S,6S)-(−)-33b]
5 | <5 | 5.27 ± 0.12 | <5 | <5 | <5 |  |  |  |  |  |  |  |  |  |  | C[N+](C)(C)C[C@@H]1COC[C@@H](c2ccc(-c3ccccc3)cc2)O1.[I-] (relative stereo) [4b, 1-((2R*,6R*)-6-([1,1′-Biphenyl]-4-yl)-1,4-dioxan-2-yl)-N,N,N-trimethylmethanaminium Iodide]
6 | 6.30 ± 0.09 | 5.65 ± 0.09 | 5.81 ± 0.10 | 5.40 ± 0.09 | 5.52 ± 0.08 |  |  |  |  |  |  |  |  |  |  | C[N+](C)(C)C[C@@H]1CO[C@H](c2ccccc2)[C@@H](c2ccccc2)O1.[I-] (relative stereo) [18b, 1-((2R*,5R*,6R*)-5,6-Diphenyl-1,4-dioxan-2-yl)-N,N,N-trimethylmethanaminium Iodide]
7 |  |  |  |  |  |  |  |  |  |  | 0.676 µM | 4.37 µM | 2 µM | 3.89 µM | 3.98 µM | C[N+](C)(C)C[C@@H]1COC(c2ccccc2)C(c2ccccc2)(c2ccccc2)O1 (stereo in doubt) [19a, 1-((2R*,5S*)-5,6,6-Triphenyl-1,4-dioxan-2-yl)-N,N,N-trimethylmethanaminium Iodide]
8 | 6.08 ± 0.07 | 6.06 ± 0.08 | 5.62 ± 0.11 | 5.52 ± 0.06 | 5.20 ± 0.01 |  |  |  |  |  |  |  |  |  |  | C[N+](C)(C)C[C@@H]1CO[C@@H](C(c2ccccc2)c2ccccc2)CO1.[I-] (relative stereo) [12b, 1-((2R*,5S*)-5-Benzhydryl-1,4-dioxan-2-yl)-N,N,N-trimethylmethanaminium Iodide]
9 | <5 | <5 | <5 | <5 | <5 |  |  |  |  |  |  |  |  |  |  | C[N+](C)(C)C[C@@H]1CO[C@H](c2ccc(-c3ccccc3)cc2)CO1.[I-] (relative stereo) [13a, 1-((2R*,5R*)-5-([1,1′-Biphenyl]-4-yl)-1,4-dioxan-2-yl)-N,N,N-trimethylmethanaminium Iodide]
10 | <5 | <5 | <5 | <5 | <5 |  |  |  |  |  |  |  |  |  |  | C[N+](C)(C)C[C@@H]1CO[C@@H](c2ccc(S(=O)(=O)c3ccccc3)cc2)CO1.[I-] (relative stereo) [17b, 1-((2R*,5S*)-5-(4-(Phenylsulfonyl)phenyl)-1,4-dioxan-2-yl)-N,N,N-trimethylmethanaminium Iodide]

Row | Structure (SMILES) | pKi hM1 (hM1 mAChR; [1]) | pKi hM2 (hM2 mAChR; [1]) | pKi hM3 (hM3 mAChR; [1]) | pKi hM4 (hM4 mAChR; [1]) | pKi hM5 (hM5 mAChR; [1]) | ER (eudismic ratio) hM1 (hM1 mAChR; eutomer vs distomer) | ER (eudismic ratio) hM2 (hM2 mAChR; eutomer vs distomer) | ER (eudismic ratio) hM3 (hM3 mAChR; eutomer vs distomer) | ER (eudismic ratio) hM4 (hM4 mAChR; eutomer vs distomer) | ER (eudismic ratio) hM5 (hM5 mAChR; eutomer vs distomer) | Ki (hM1 mAChR; [3H]NMS, CHO-K1 cell membranes, mean ± S.E.M., read-out: pKi hM1 (converted)) | Ki (hM2 mAChR; [3H]NMS, CHO-K1 cell membranes, mean ± S.E.M., read-out: pKi hM2 (converted)) | Ki (hM3 mAChR; [3H]NMS, CHO-K1 cell membranes, mean ± S.E.M., read-out: pKi hM3 (converted)) | Ki (hM4 mAChR; [3H]NMS, CHO-K1 cell membranes, mean ± S.E.M., read-out: pKi hM4 (converted)) | Ki (hM5 mAChR; [3H]NMS, CHO-K1 cell membranes, mean ± S.E.M., read-out: pKi hM5 (converted))
11 | C[N+](C)(C)C[C@@H]1COC[C@@H](c2ccc(Sc3ccccc3)cc2)O1.[I-] (relative stereo) [6b, 1-((2R*,6R*)-6-(4-(Phenylthio)phenyl)-1,4-dioxan-2-yl)-N,N,N-trimethylmethanaminium Iodide] | 5.51 ± 0.01 | 6.71 ± 0.01 | 5.77 ± 0.05 | 5.70 ± 0.02 | 5.95 ± 0.13 |  |  |  |  |  |  |  |  |  | 
12 | C[N+](C)(C)C[C@@H]1COC[C@](c2ccccc2)(C2CCCCC2)O1 [(2R,6R)-(+)-3b, 1-((2R,6R)-6-Cyclohexyl-6-phenyl-1,4-dioxan-2-yl)-N,N,N-trimethylmethanaminium Iodide] | 8.30 ± 0.25 | 7.86 ± 0.14 | 7.51 ± 0.12 | 7.45 ± 0.11 | 7.68 ± 0.35 |  |  |  |  |  |  |  |  |  | 
